Values of other authors in publication PMC13427755 (Nature Communications, 2026).
Where two headings read alike, the source gives them in different places.

Test system: SP-D
Conditions: at 12 weeks, cited from earlier work

SMILES	decrease in SP-D (INMARK study of nintedanib)	decrease in SP-D (CAPACITY study of pirfenidone)
COC(=O)c1ccc2c(c1)NC(=O)/C2=C(\Nc1ccc(N(C)C(=O)CN2CCN(C)CC2)cc1)c1ccccc1 [nintedanib]	4%	–
Cc1ccc(=O)n(-c2ccccc2)c1 [pirfenidone]	–	5%
